Measurements as given in PubChem BioAssay AID330 (DTP/NCI, 2004).
“And” between values parts separate entries of the source, which are not always exact repeats. Equal values may be shown once. Inconclusive results and toxic doses are left out. How the source made its calls: active means survival T/C of 150% or more; inactive means T/C below 125% in these data.

System: P388 leukemia ip, CD2F1 mice, survival T/C
Experiment: NCI In Vivo Anticancer Drug Screen. Data for tumor model P388 Leukemia (intraperitoneal) in CD2F1 (CDF1) mice
Details: endpoint: median survival time, higher = longer survival
Method in brief: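 Mice carrying the transplanted tumor received test compound or vehicle. Survival was recorded in each group, and the value is the treated-group measurement divided by that of the vehicle-treated control group.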

[1] = dose: 60.0 mg/kg/injection, schedule: Q01DX005 (ip), vehicle: Klucel (hydroxypropylcellulose) (HPC)
[2] = dose: 120.0 mg/kg/injection, schedule: Q01DX005 (ip), vehicle: Klucel (hydroxypropylcellulose) (HPC)
[3] = dose: 240.0 mg/kg/injection, schedule: Q01DX005 (ip), vehicle: Klucel (hydroxypropylcellulose) (HPC)
[4] = dose: 50.0 mg/kg/injection, schedule: Q01DX009 (ip), vehicle: saline
[5] = dose: 50.0 mg/kg/injection, schedule: Q01DX009 (ip), vehicle: saline with Tween-80
[6] = dose: 100.0 mg/kg/injection, schedule: Q01DX009 (ip), vehicle: saline with Tween-80
[7] = dose: 200.0 mg/kg/injection, schedule: Q01DX009 (ip), vehicle: saline with Tween-80
[8] = dose: 60.0 mg/kg/injection, schedule: Q01DX005 (ip), vehicle: saline with Tween-80
[9] = dose: 120.0 mg/kg/injection, schedule: Q01DX005 (ip), vehicle: saline with Tween-80
[10] = dose: 240.0 mg/kg/injection, schedule: Q01DX005 (ip), vehicle: saline with Tween-80
[11] = dose: 60.0 mg/kg/injection, schedule: Q01DX005 (ip), vehicle: saline
[12] = dose: 25.0 mg/kg/injection, schedule: Q01DX009 (ip), vehicle: saline with Tween-80
[13] = dose: 100.0 mg/kg/injection, schedule: Q01DX001 (ip), vehicle: Klucel (hydroxypropylcellulose) (HPC)
[14] = dose: 200.0 mg/kg/injection, schedule: Q01DX001 (ip), vehicle: Klucel (hydroxypropylcellulose) (HPC)
[15] = dose: 400.0 mg/kg/injection, schedule: Q01DX001 (ip), vehicle: Klucel (hydroxypropylcellulose) (HPC)
[16] = dose: 100.0 mg/kg/injection, schedule: Q04DX002 (ip), vehicle: saline with Tween-80
[17] = dose: 200.0 mg/kg/injection, schedule: Q04DX002 (ip), vehicle: saline with Tween-80
[18] = dose: 100.0 mg/kg/injection, schedule: Q04DX002 (ip), vehicle: Klucel (hydroxypropylcellulose) (HPC)
[19] = dose: 200.0 mg/kg/injection, schedule: Q04DX002 (ip), vehicle: Klucel (hydroxypropylcellulose) (HPC)
[20] = dose: 100.0 mg/kg/injection, schedule: Q04DX003 (ip), vehicle: Klucel (hydroxypropylcellulose) (HPC)
[21] = dose: 200.0 mg/kg/injection, schedule: Q04DX003 (ip), vehicle: Klucel (hydroxypropylcellulose) (HPC)
[22] = dose: 100.0 mg/kg/injection, schedule: Q04DX003 (ip), vehicle: saline with Tween-80

Measured: T/C

Cc1ccc(S(=O)(=O)C2C(C)(C)C2(Sc2ccccc2)[Si](C)(C)C)cc1 (centres undefined)
inactive: [1] 102 % of control | [2] 106 % of control | [3] 92 % of control

CC(=O)OCN(C)N=Nc1ccc(C(C)=O)cc1
inactive: [1] 106 % of control and 114 % of control and 118 % of control | [2] 100 % of control and 109 % of control and 124 % of control | dose: 480.0 mg/kg/injection, schedule: Q01DX005 (ip), vehicle: Klucel (hydroxypropylcellulose) (HPC) 108 % of control

CCC1=NC(C)(C)CO1
inactive: [4] 104 % of control | dose: 100.0 mg/kg/injection, schedule: Q01DX009 (ip), vehicle: saline 97 % of control | dose: 200.0 mg/kg/injection, schedule: Q01DX009 (ip), vehicle: saline 97 % of control

Cc1ccc2nc(NC(=O)OCc3ccccc3)sc2c1
inactive: dose: 6.25 mg/kg/injection, schedule: Q01DX009 (ip), vehicle: Klucel (hydroxypropylcellulose) (HPC) 97 % of control | dose: 12.5 mg/kg/injection, schedule: Q01DX009 (ip), vehicle: Klucel (hydroxypropylcellulose) (HPC) 101 % of control

[S]=[W]=[S]
inactive: [5] 98 % of control | [6] 102 % of control | [7] 96 % of control

Nc1ccc(S(=O)(=O)Nc2nc(/C=C/c3ccccc3)cc(-c3cc(/C=C/c4ccccc4)nc(NS(=O)(=O)c4ccc(N)cc4)n3)n2)cc1
inactive: [8] 94 % of control | [9] 95 % of control | [10] 94 % of control

CC(=O)[OH+]c1c(I)cc(I)cc1C(=O)[O-].CC(=O)[OH+]c1c(I)cc(I)cc1C(=O)[O-].[Cu+2]
inactive: dose: 15.0 mg/kg/injection, schedule: Q01DX005 (ip), vehicle: saline 106 % of control | dose: 30.0 mg/kg/injection, schedule: Q01DX005 (ip), vehicle: saline 92 % of control | [11] 106 % of control and 109 % of control

COC(=O)c1cc2nc(C(C)C)n(Cc3ccccc3)c2cc1C(=O)OC
inactive: [8] 92 % of control | [9] 92 % of control | [10] 90 % of control

CN(c1ccccc1)c1c2c(oc(=O)c1Cl)-c1ccccc1SC2
inactive: dose: 6.25 mg/kg/injection, schedule: Q01DX009 (ip), vehicle: saline with Tween-80 91 % of control | [12] 93 % of control | [7] 93 % of control

COc1ccc(C(=O)Cc2nc3nnc(NC(=O)Nc4ccc(Cl)cc4)n3nc2CC(=O)c2ccc(OC)cc2)cc1
inactive: [11] 97 % of control | dose: 120.0 mg/kg/injection, schedule: Q01DX005 (ip), vehicle: saline 94 % of control | dose: 240.0 mg/kg/injection, schedule: Q01DX005 (ip), vehicle: saline 95 % of control

Cc1ccc(S(=O)(=O)N2CCC(O)(c3ccccc3)CC2)cc1
inactive: [13] 94 % of control | [14] 94 % of control | [15] 93 % of control

CC(=O)c1ccccc1C(C)C
inactive: [12] 100 % of control | [5] 109 % of control | [6] 119 % of control

O=C(NC1C=Nc2ccc([N+](=O)[O-])cc2NC1=O)c1ccc(Cl)cc1 (centres undefined)
inactive: [1] 91 % of control | [2] 93 % of control | [3] 92 % of control

COC(=O)c1c2ccccc2cn1C
inactive: [16] 100 % of control | [17] 102 % of control

Cc1nnc2sc(-c3cccc(Cl)c3)nn2c1=O
inactive: dose: 50.0 mg/kg/injection, schedule: Q04DX002 (ip), vehicle: Klucel (hydroxypropylcellulose) (HPC) 102 % of control | [18] 100 % of control | [19] 100 % of control

CCOC(=O)CCC(C)(C#N)c1ccccc1 (centres undefined)
inactive: dose: 12.5 mg/kg/injection, schedule: Q01DX009 (ip), vehicle: saline with Tween-80 94 % of control | [12] 99 % of control | [5] 103 % of control | [6] 87 % of control

O=P(O)(O)SP(=O)(O)O.[Mn]
inactive: [20] 105 % of control | [21] 110 % of control | dose: 400.0 mg/kg/injection, schedule: Q04DX003 (ip), vehicle: Klucel (hydroxypropylcellulose) (HPC) 119 % of control

O=C1CC2(CCCC2)C(=O)N1c1cccc(Cl)c1
inactive: [13] 97 % of control | [14] 100 % of control | [15] 91 % of control

Cc1ccc2c(N(CCCl)CCCl)cc(-c3ccccc3)nc2n1
inactive: dose: 50.0 mg/kg/injection, schedule: Q04DX003 (ip), vehicle: Klucel (hydroxypropylcellulose) (HPC) 98 % of control | [20] 100 % of control | [21] 99 % of control

CCCSC(SCCC)C1OC(c2ccccc2)OC2COC(c3ccccc3)OC21 (centres undefined)
inactive: dose: 50.0 mg/kg/injection, schedule: Q01DX005 (ip), vehicle: Klucel + Tween-80 90 % of control | dose: 100.0 mg/kg/injection, schedule: Q01DX005 (ip), vehicle: Klucel + Tween-80 87 % of control | dose: 200.0 mg/kg/injection, schedule: Q01DX005 (ip), vehicle: Klucel + Tween-80 87 % of control

Cc1c(Cl)cccc1N=Cc1ccc(C=Nc2cccc(Cl)c2C)cc1
inactive: dose: 50.0 mg/kg/injection, schedule: Q01DX009 (ip), vehicle: Klucel (hydroxypropylcellulose) (HPC) 94 % of control | dose: 100.0 mg/kg/injection, schedule: Q01DX009 (ip), vehicle: Klucel (hydroxypropylcellulose) (HPC) 92 % of control | dose: 200.0 mg/kg/injection, schedule: Q01DX009 (ip), vehicle: Klucel (hydroxypropylcellulose) (HPC) 91 % of control

O=C(c1ccccc1)c1cnc2ccccn12
inactive: [20] 100 % of control | [21] 100 % of control

NNC(=O)COc1ccc(Br)cc1Br
inactive: [8] 95 % of control | [9] 97 % of control

C=COC(=O)C(Cc1ccc(F)cc1)NC(=O)OCc1ccccc1 (centres undefined)
inactive: [18] 103 % of control | [19] 97 % of control | dose: 400.0 mg/kg/injection, schedule: Q04DX002 (ip), vehicle: Klucel (hydroxypropylcellulose) (HPC) 97 % of control

FC(F)(F)c1cccc(C2CNCCO2)c1 (centres undefined)
inactive: dose: 12.5 mg/kg/injection, schedule: Q01DX009 (ip), vehicle: saline 100 % of control | dose: 25.0 mg/kg/injection, schedule: Q01DX009 (ip), vehicle: saline 105 % of control | [4] 100 % of control

N#CCCCCCCCCCCCC1C=CCC1 (centres undefined)
inactive: dose: 100.0 mg/kg/injection, schedule: Q01DX001 (ip), vehicle: saline 100 % of control | dose: 200.0 mg/kg/injection, schedule: Q01DX001 (ip), vehicle: saline 98 % of control | dose: 400.0 mg/kg/injection, schedule: Q01DX001 (ip), vehicle: saline 100 % of control

O=[N+]([O-])c1ccc(C2CC3COc4ccccc4C3=N2)cc1 (centres undefined)
inactive: dose: 18.75 mg/kg/injection, schedule: Q01DX001 (ip), vehicle: Klucel (hydroxypropylcellulose) (HPC) 88 % of control | dose: 37.5 mg/kg/injection, schedule: Q01DX001 (ip), vehicle: Klucel (hydroxypropylcellulose) (HPC) 88 % of control | dose: 75.0 mg/kg/injection, schedule: Q01DX001 (ip), vehicle: Klucel (hydroxypropylcellulose) (HPC) 94 % of control

CCCc1c(Cl)nc(Cl)nc1Cl
inactive: [12] 104 % of control | dose: 25.0 mg/kg/injection, schedule: Q04DX003 (ip), vehicle: saline with Tween-80 113 % of control | [5] 118 % of control | dose: 50.0 mg/kg/injection, schedule: Q04DX003 (ip), vehicle: saline with Tween-80 121 % of control | dose: 66.0 mg/kg/injection, schedule: Q01DX009 (ip), vehicle: saline with Tween-80 116 % of control | [6] 100 % of control | [22] 113 % of control

CC(C)(C)N(O)c1cccc(P(c2ccccc2)c2ccccc2)c1
inactive: dose: 50.0 mg/kg/injection, schedule: Q04DX002 (ip), vehicle: saline with Tween-80 91 % of control | [16] 94 % of control | [17] 100 % of control

CC1(C)N=C(Oc2ccc(Cl)cc2Cl)NC(=S)N1
inactive: [8] 95 % of control | [9] 97 % of control | [10] 95 % of control

O=[N+]([O-])c1cnn(Cn2cc([N+](=O)[O-])cn2)c1
inactive: [22] 109 % of control | dose: 200.0 mg/kg/injection, schedule: Q04DX003 (ip), vehicle: saline with Tween-80 116 % of control | dose: 400.0 mg/kg/injection, schedule: Q04DX003 (ip), vehicle: saline with Tween-80 120 % of control
